Results taken from US10336682B1, “Hydroxytyrosol shikimic acid ester for treating cardiovascular deceases and a method of preparing the same” (SHAANXI UNIVERSITY OF SCIENCE AND TECHNOLOGY, priority 2019, dated 2019).

What was measured:
blood clot (thrombus) = experiment: Measurement of thrombus resolution rate: mouse blood clots incubated with test solution; design: species or system Kunming mice; conditions: for Resolution/% (thrombus resolution rate): 2 mL solution on mouse blood clot, 6 hours at 37° C.
Experimental: Measurement of Thrombus Resolution Rate in Mice
Experimental materials: Clean-grade Kunming mice, weighing 20-28 g each, half male and half female; urokinase (Shanghai Maclean Biotechnology Co., Ltd.)
Experimental methods: 40 healthy Kunming mice were randomly divided into 5 groups according to their body weight, 8 in each group, half male and half female. One group of mice was selected as blank control. 1 mL of blood was taken from each mouse of the blank control group. After the blood was solidified, the formed blood clot (thrombus) was rinse with physiological saline for 30 minutes, and dried and weighed. The average weight of blood clot was calculated as W. Other groups of mice were treated with the same method. The blood clots were rinsed, and placed in cryotubes. 2 mL solutions of urokinase (positive control group), a low dose of hydroxytyrosol shikimic acid ester (experiment group 1), a medium dose of hydroxytyrosol shikimic acid ester (experimental group 2), and a high dose of hydroxytyrosol shikimic acid ester (experimental group 3) were added to the blood clots. For the blank control group, an equal volume of physiological saline was added to the blood clot. After incubating for 6 hours in a 37° C. incubator, the clots were taken out and rinsed with physiological saline for 30 min. After drying and weighing, the average weight of the blood clot was recorded as G, and the resolution rate of the blood clot was calculated according to the following formula. Thrombus Resolution Rate (%)=[(W−G)/W]×100%

prostaglandin E2 (PGE2) = experiment: Measurement of PGE2 in rat plasma after intragastric administration; format: in vivo, SD rats; conditions: for PGE2 level in rat plasma: after 20 days, male SD rats
Text: (§1) Measurement of thromboxane B2 (TXB2), 6-keto prostaglandin F1a (6-Ke-PGF1a) and prostaglandin E2 (PGE2) in rat plasma by enzyme-linked immunosorbent assay
(§2) Experimental materials: clean grade SD rats, body weight 150-250 g, male; TXB2 radioimmunoassay kit, 6-Ke-PGF1a radioimmunoassay kit, PGE2 radioimmunoassay kit, Shanghai Bairui Biotechnology Co., Ltd.
(§3) Experimental methods: 32 rats were randomly divided into 4 groups, 8 rats in each group. After 2 days of normal feeding, blood was taken from the jugular vein of each rat, and the plasma was separated and frozen at −20° C. On the next day, rats in the experimental groups were intragastrically administered with low doses of hydroxytyrosol shikimic acid ester (experimental group 1), medium dose of hydroxytyrosol shikimic acid ester (experimental group 2) and high-dose hydroxytyrosol shikimic acid ester (experimental group 3) at a dose of 1 mL/100 g. Rats in the control group were intragastrically administered with the same amount of normal saline. After 20 days, blood was taken from the jugular vein of each rat, anticoagulated, and the plasma was separated and frozen at −20° C. The contents of plasma TXB2, 6-Ke-PGF1A and PGE2 in each group of rats were determined according to TXB2, 6-Ke-PGF1a and PGE2 kit methods.

[1] = tested on: 6-keto prostaglandin F1a (6-Ke-PGF1a); experiment: Measurement of 6-Ke-PGF1a in rat plasma after intragastric administration; format: in vivo, SD rats; conditions: for 6-Ke-PGF1a level in rat plasma: after 20 days, male SD rats
Text: as §1, §2, §3

thromboxane B2 (TXB2) = experiment: Measurement of TXB2 in rat plasma after intragastric administration; format: in vivo, SD rats; conditions: for TXB2 level in rat plasma: after 20 days, male SD rats
Text: as §1, §2, §3

[2] = compared with the blank control group, 25-250 mg/Kg · d

| Compound | Resolution/% (thrombus resolution rate) (blood clot (thrombus); 2.5 mg/mL (low dose, experimental group 1)) [%] | Resolution/% (thrombus resolution rate) (blood clot (thrombus); 5 mg/mL (medium dose, experimental group 2)) [%] | Resolution/% (thrombus resolution rate) (blood clot (thrombus); 10 mg/mL (high dose, experimental group 3)) [%] | blood clot resolution (thrombolytic) effect, in words (blood clot (thrombus); compared with the blank control group, 2.5-10 mg/mL) | PGE2 level in rat plasma (prostaglandin E2 (PGE2); 25 mg/Kg · d intragastric) [pg/mL] | PGE2 level in rat plasma (prostaglandin E2 (PGE2); 50 mg/Kg · d intragastric) [pg/mL] | PGE2 level in rat plasma (prostaglandin E2 (PGE2); 250 mg/Kg · d intragastric) [pg/mL] | content of PGE2 in rat plasma, in words (prostaglandin E2 (PGE2); [2]) | 6-Ke-PGF1a level in rat plasma ([1]; 25 mg/Kg · d intragastric) [pg/mL] | 6-Ke-PGF1a level in rat plasma ([1]; 50 mg/Kg · d intragastric) [pg/mL] | 6-Ke-PGF1a level in rat plasma ([1]; 250 mg/Kg · d intragastric) [pg/mL] | content of 6-Ke-PGF1a in rat plasma, in words ([1]; compared with the blank control group, 25-250 mg/Kg · d, no obvious dose-dependent relationship) | TXB2 level in rat plasma (thromboxane B2 (TXB2); 25 mg/Kg · d intragastric) [pg/mL] | TXB2 level in rat plasma (thromboxane B2 (TXB2); 250 mg/Kg · d intragastric) [pg/mL] | content of TXB2 in rat plasma, in words (thromboxane B2 (TXB2); [2]) | TXB2 level in rat plasma (thromboxane B2 (TXB2); intragastric) [pg/mL] | Resolution/% (thrombus resolution rate) (blood clot (thrombus); 0.5 U/mL) [%] |
| --- | --- | --- | --- | --- | --- | --- | --- | --- | --- | --- | --- | --- | --- | --- | --- | --- | --- |
| O=C(OCCc1ccc(O)c(O)c1)C1=C[C@@H](O)[C@@H](O)[C@H](O)C1 [hydroxytyrosol shikimic acid ester] | 6.33 ± 0.19 | 7.04 ± 0.41 | 8.93 ± 0.45 | significant thrombolytic effect | 26.18 ± 0.21 | 24.22 ± 0.14 | 20.87 ± 0.19 | reduced in a dose-dependent manner | 76.46 ± 0.17 | 85.40 ± 0.32 | 81.36 ± 0.28 | increased | 4.93 ± 0.12 | 3.12 ± 0.14 | reduced in a dose-dependent manner | 4.38 ± 0.22 |  |
| urokinase [reference compound] |  |  |  |  |  |  |  |  |  |  |  |  |  |  |  |  | 12.38 ± 0.27 |
